The results in this text go back to patent US5500430A, “Amidic derivatives of glutamic, aspartic and 2-amino adipic acids, a process for preparing same, and anti-gastrin composition containing the derivatives” (Rotta Research Laboratorium S.p.A., priority 1990, dated 1996).

One data set relates to fundic mucosa. Put plainly: Fundic mucosa hyperplasia induced by pentagastrin in mice. The data set is classed as in vivo. The note with it: 21 days. An excerpt: Inhibitory effect on the rate of growth of tumorous colic cells induced by pentagastrin
Gastrin has a trophic effect on the digestive epithelium.
Upon the basis of this premise, it was wished to investigate whether the gastrin-specific antagonists of the invention could antagonise the growth of experimentally-induced gastrointestinal tumours.
Male mice weighing 20-25 g were inoculated subcutaneously in the interscapular region with a suspension of 8×10^4 tumour cells of a mouse colic adenocarcinoma.
After 21 days, the animals were killed and the fundic mucosa and the tumours were removed, weighed and extracted to determine the DNA.

Data set [1] concerns guinea-pig gall bladder contracted with CCK-8. Put plainly: Anticholecystokinin (anti-CCK) activity on guinea-pig gall bladders stimulated by CCK-8 in vitro. The note with it: CCK-8 concentration 10 ng/ml, Krebs, 32° C. On the procedure:
Anticholecystokinin (anti-cc, K) activity
In order to confirm the hypothesis that the molecular conformations of the compounds of the invention are suitable to provide them with antagonistic activity towards CCK as well as towards gastrin, the anticontracturant activities of some of the compounds of the invention were tested on guinea-pig gall bladders stimulated by CCK-8 in vitro.
A longitudinal strip of guinea-pig gall bladder was placed in a bath for isolated organs in the presence of Krebs at a temperature of 32° C. and oxygenated continuously with an oxygen-CO2 mixture (95-5 V/V).
The isometric contractions were detected by means of a force transducer and recorded.
The gall bladder was contracted with the use of a concentration of 10 ng/ml of CCK-8; the antagonistic activities of the compounds towards the contracturant effect of the CCK was determined with the use of different concentrations, thus determining the IC50 values, that is, the concentration of the compound in mcg/ml which can antagonise the contracturant effect of CCK by 50%.

Data set [2] can be described thus: Acute intravenous toxicity in rats (LD50). The settings on record: rat, in vivo. The text has this:
The activity of these compounds against gastric secretion is linked specifically to their antigastrin activity.

In data set [3] the test system is gastric acid secretion induced by pentagastrin. Nature of the data set: Antisecretive activity in anaesthetised rats (pentagastrin-stimulated gastric acid secretion). The data set is classed as in vivo. Here is the method: Antisecretive activity in anaesthetised rats
Antisecretive activity in rats was determined with the use of male animals each weighing about 200 g, anaesthetised with urethane. Gastric secretion was stimulated with pentagastrin. The method of K. S. Lai (Gut 5, (1964), 327-341) was used, slightly modified.
After tracheotomy, cannulae were inserted in the oesophagus and the duodenum. A tepid solution. (37° C.) of 0.25 mM NaOH was perfused and passed through the stomach by means of a peristaltic pump at a constant flow rate of 1 ml/minute. After stabilisation for 20 minutes, the stimulating agent, dissolved in a physiological solution, was perfused for 120 minutes at a dose of 30 mcg/Kg/h in a volume of 0.95 ml/hour. After perfusion for 60 minutes (the basal stimulation), the product under test was administered as an intravenous bolus (I.V.) and the perfusion of the stimulant continued for a further 60 minutes. Acid secretion was recorded continuously as a function of time.
The activity of the product was evaluated as the percentage reduction in the secreted acidity after the administration of the product compared with the base acidity measured during the first 60 minutes of collection during which only the pentagastrin was present.
Different doses of the antagonist compounds tested were administered so that an ID50, that is, the dose (in mg/Kg I.V.) capable of inhibiting the effect of pentagastrin by 50%, could be calculated.
The results thus obtained are illustrated in the following table (Table 1) in which the activities of the compounds are expressed as the ID50s under the stimulus of 30 mcg/Kg/h of pentagastrin.

Data set [4] shares this test system. Nature of the data set: Antisecretive activity in conscious dogs carrying gastric fistulae. Format: in vivo, dogs (beagles). The note with it: for ED50: Canis lupus familiaris, iv, read-out: ID50 (the source's name). On the procedure: Antisecretive activity in conscious dogs
Male beagles weighing about 10 Kg were used and carried gastric fistulae at the level of the greater curvature, connected near the antral region, steel cannulae 5 cm long and 2 cm wide being inserted for collecting the gastric juices externally. After a period of about one month to recover from the operation, and after suitable conditioning, the animals were treated with pentagastrin at a dose of 3 mcg/Kg/h. The Stimulant, dissolved in a physiological solution, was perfused into the femoral vein for 180 minutes at a rate of 1.9 ml/h. After perfusion for 60 minutes (the basal stimulation) the product under test, dissolved in a physiological solution (1 ml/Kg), was administered in a bolus into the contra-lateral vein and, at the same time, the perfusion of the stimulant continued for a further 120 minutes. The acid secretion was recorded continuously as a function of time.
The activity of the product was evaluated as the percentage reduction in the secreted acidity after the administration of the product compared with the base acidity measured during the first 60 minutes of collection during which only the pentagastrin was present, for each of the periods 0-60 and 60-120 minutes after the product had been administered in a bolus.
Different doses of the compounds (C-1 and C-5) tested were administered so that an ID50, that is the dose (in mg/Kg I.V.) capable of inhibiting the effect of the pentagastrin by 50% could be calculated.
The results obtained are given in the following table (Tab. 2) in which the % variations from the base (the mean ± standard deviations calculated on the values obtained from 4 animals) are given for the various doses administered under the stimulus of 3 mcg/Kg/h of pentagastrin, as well as the activities of the compounds, calculated as their ID50s, and the correlation coefficients of the regression lines calculated on the basis of the experimental data.

Setting [5] is: pentagastrin + C-5 3 mg/Kg i.p. twice a day.
[6] abbreviates: pentagastrin + C-5 10 mg/Kg i.p. twice a day.

On to `O=C(O)CC[C@@H](NC(=O)c1cc(Cl)cc(Cl)c1)C(=O)N1CCC2(CCCC2)CC1` [Compound C5], for which the “Effect on the fundic mucosa (in words)” value with fundic mucosa (mice) was “can inhibit both the aforementioned trophic effects of pentagastrin in a significant and dose-dependent manner”. Moreover, the “Fundic DNA, Mean ± SD” value with fundic mucosa (setting [5]) is recorded as 0.268 ± 0.03 mg; in the data set on fundic mucosa (setting [6]), 0.252 ± 0.03 mg. Besides, the “Weight of the mucosa fundica, Mean ± SD” value in the data set with fundic mucosa (setting [5]) worked out at 23.85 ± 3.48 mg; with fundic mucosa (setting [6]), 18.90 ± 2.54 mg. Besides, in data set [1], the “Anti-CCK activity IC50” value amounted to 34.8 mg/L. In data set [2], the LD50 is approximately 400 mg/kg. Besides, in data set [2], the selectivity ratio is approximately 25. For the same compound, the ED50 in data set [3] (Rattus norvegicus, iv, anaesthetised male rats, pentagastrin 30 mcg/Kg/h, I.V. bolus, IN with bound, read-out: Antagonistic activity (ID50) towards gastric acid secretion induced by pentagastrin) turned out to be 15 mg/kg; in data set [4] (1 h, conscious dogs, I.V. bolus, period 60-120 min (first hour after administration)) it was 8.9 mg/kg; in data set [4] (2 h, conscious dogs, I.V. bolus, period 120-180 min (second hour after administration)) it was 32.5 mg/kg. For the same compound, in data set [3] (anaesthetised rats, pentagastrin 30 mcg/Kg/h), the “Antigastrin activity (in words)” value is “particularly favourable”. Also, the “Activity as peripheral pentagastrin inhibitor relative to compound C-30” value in data set [3] (rats, vs C-30) is “slightly more active”. Further, the “Variation % (Mean ± SD) from base (0-60 min)” value in data set [4] (5 mg/Kg I.V., period 60-120 min) was -36.0 ± 16.3%; in data set [4] (5 mg/Kg I.V., period 120-180 min) it was -20.5 ± 13.1%; in data set [4] (10 mg/Kg I.V., period 60-120 min), -59.5 ± 5.0%; in data set [4] (10 mg/Kg I.V., period 120-180 min) it was -31.9 ± 1.3%; in data set [4] (30 mg/Kg I.V., period 60-120 min) it was -67.8 ± 4.8%; in data set [4] (30 mg/Kg I.V., period 120-180 min) it was -48.1 ± 1.7%. This compound gave an ID50 in data set [4] (conscious dogs, I.V. bolus, period 60-120 min (first hour after administration), 60 min) of approximately 10 mg/kg. Further, the “Inhibition of gastric acid secretion induced by pentagastrin in dogs (in words)” value in data set [4] (conscious dogs, first hour after bolus) was “potent inhibitors of gastric acid secretion induced by pentagastrin in dogs”.
